ChEMBL document CHEMBL1201862, “PubChem BioAssay data set” (2004)
The source made the active and inactive calls.

Experiments:
[1] = biological target: Nucleotide-binding oligomerization domain-containing protein 2 (Homo sapiens, UniProt Q9HC29); test: inhibition of NOD2-driven NF-kB reporter – cell-based, luminescence, uHTS, HEK293 (AID 1566); format: functional
HEK293 [2] = test: inhibition of NOD1-driven NF-kB reporter – cell-based, luminescence, uHTS, primary screen (AID 1578); format: functional; conditions: Homo sapiens
HEK293 [3] = test: cells; format: functional, cell-based; conditions: Homo sapiens
HEK293 [4] = test: cells; format: functional, cell-based; conditions: Homo sapiens; remark: listed apart in the source
HEK293 [5] = test: cells; format: functional, cell-based; conditions: Homo sapiens; remark: listed apart in the source
HEK293 [6] = test: NOD2 signaling inhibitors in MDP-stimulated cells, cell-based, uHTS, luminescence (AID 2001); format: functional; conditions: Homo sapiens
[7] = THP-1 cell cytotoxicity, dose response, cytotoxicity control for non-replicating M. tuberculosis project (AID 489025); format: functional
[8] = Luminescence Cell-Based Dose Confirmation HTS to Identify Activators of 5'UTR Stem-Loop Driven Alpha-Synuclein mRNA Translation in H4 Neuroglioblastoma Cells. [Related pubchem assays: 1829 (Project Summary), 1814 (Primary HTS)]; format: functional
[9] = HepG2 cell cytotoxicity, dose response, cytotoxicity control for non-replicating M. tuberculosis project (AID 489018); format: functional; conditions: Mycobacterium tuberculosis
Leucine aminopeptidase = biological target: T1, Leucine aminopeptidase (Plasmodium falciparum 3D7, UniProt Q8IL11); test: P. falciparum M17LAP inhibitors, primary screen, biochemical, fluorogenic H-Leu-NHMec substrate, 1536-well (AID 1619); format: functional
T1 sequence (Q8IL11 whole entry): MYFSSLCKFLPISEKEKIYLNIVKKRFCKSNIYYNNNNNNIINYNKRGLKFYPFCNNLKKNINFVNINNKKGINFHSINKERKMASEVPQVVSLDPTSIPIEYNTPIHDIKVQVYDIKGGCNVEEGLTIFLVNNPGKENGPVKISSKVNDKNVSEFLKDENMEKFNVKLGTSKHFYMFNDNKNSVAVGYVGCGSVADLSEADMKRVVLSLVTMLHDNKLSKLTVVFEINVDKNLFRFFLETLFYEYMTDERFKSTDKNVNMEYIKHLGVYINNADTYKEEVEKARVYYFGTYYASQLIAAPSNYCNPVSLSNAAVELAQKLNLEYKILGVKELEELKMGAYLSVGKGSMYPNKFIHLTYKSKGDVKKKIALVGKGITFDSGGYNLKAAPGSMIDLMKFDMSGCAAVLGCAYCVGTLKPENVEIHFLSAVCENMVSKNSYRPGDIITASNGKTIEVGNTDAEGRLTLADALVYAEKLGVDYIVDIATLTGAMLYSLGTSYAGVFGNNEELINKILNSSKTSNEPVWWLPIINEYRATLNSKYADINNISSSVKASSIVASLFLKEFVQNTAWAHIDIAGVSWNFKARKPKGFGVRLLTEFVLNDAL

[10] = Luminescence Cell-Based Dose Response HTS to Identify Activators of Luciferase Translation or Activity in H4 […] Cells. [Related pubchem assays: 1829 (Project Summary), 1814 (Primary HTS)]; format: functional
H4 = test: Luminescence Cell-Based Dose Response HTS to Identify Activators of 5'UTR Stem-Loop Driven Prion Protein mRNA Translation in H4 Neuroglioblastoma Cells. [Related pubchem assays: 1829 (Project Summary), 1814 (Primary HTS)]; format: functional; conditions: Homo sapiens
[11] = Vero E6 cell cytotoxicity, dose response, cytotoxicity control for non-replicating M. tuberculosis project, secondary assay (AID 492998); format: functional, VeroE6; conditions: Vero C1008
Prothrombin = Prothrombin (Homo sapiens, UniProt P00734); test: Thrombin 1536 HTS Dose Response Confirmation. [Related pubchem assays: 1046 (Thrombin 1536 HTS; hits were confirmed in this assay)]; format: functional
Coagulation factor XII = biological target: T2, Coagulation factor XII (Homo sapiens, UniProt P00748); format: functional;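 further: activated factor XIIa alpha cleaving a fluorogenic AMC peptide substrate; inhibitor potency from loss of enzyme activity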
T2 sequence (P00748 whole entry): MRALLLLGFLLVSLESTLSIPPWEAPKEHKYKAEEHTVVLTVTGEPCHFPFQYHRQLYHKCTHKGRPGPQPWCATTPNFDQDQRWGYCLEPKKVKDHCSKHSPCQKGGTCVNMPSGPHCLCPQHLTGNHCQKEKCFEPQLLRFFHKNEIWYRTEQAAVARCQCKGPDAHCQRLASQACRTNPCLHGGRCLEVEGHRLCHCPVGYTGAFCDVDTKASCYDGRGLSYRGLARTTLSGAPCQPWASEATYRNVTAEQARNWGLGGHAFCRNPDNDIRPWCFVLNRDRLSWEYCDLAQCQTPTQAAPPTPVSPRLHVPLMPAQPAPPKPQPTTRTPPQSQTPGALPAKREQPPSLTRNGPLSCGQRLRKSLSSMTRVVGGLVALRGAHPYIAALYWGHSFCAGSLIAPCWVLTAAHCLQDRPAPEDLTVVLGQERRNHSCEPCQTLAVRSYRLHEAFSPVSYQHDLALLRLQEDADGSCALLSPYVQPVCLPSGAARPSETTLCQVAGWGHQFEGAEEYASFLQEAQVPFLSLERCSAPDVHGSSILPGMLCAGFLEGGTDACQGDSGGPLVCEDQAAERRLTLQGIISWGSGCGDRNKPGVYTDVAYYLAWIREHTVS

Troponin, cardiac muscle = Troponin, cardiac muscle (Homo sapiens, UniProt P19429+P45379+P63316); test: Fluorescence-based biochemical high throughput dose response assay for activators of the calcium sensitivity of cardiac Regulated Thin Filaments (RTF). [Related pubchem assays (depositor defined):AID493008, AID493018, AID504382, AID504383]; format: protein-complex assay
cells = format: functional
[12] = biological target: T3, DNA repair and recombination protein RAD54-like (Homo sapiens, UniProt Q92698); test: RAD54 Holliday junction migration blockers – biochemical, fluorescence, cherry-picked samples, dose series, confirmation (AID 651657); format: functional
T3 sequence (Q92698 whole entry): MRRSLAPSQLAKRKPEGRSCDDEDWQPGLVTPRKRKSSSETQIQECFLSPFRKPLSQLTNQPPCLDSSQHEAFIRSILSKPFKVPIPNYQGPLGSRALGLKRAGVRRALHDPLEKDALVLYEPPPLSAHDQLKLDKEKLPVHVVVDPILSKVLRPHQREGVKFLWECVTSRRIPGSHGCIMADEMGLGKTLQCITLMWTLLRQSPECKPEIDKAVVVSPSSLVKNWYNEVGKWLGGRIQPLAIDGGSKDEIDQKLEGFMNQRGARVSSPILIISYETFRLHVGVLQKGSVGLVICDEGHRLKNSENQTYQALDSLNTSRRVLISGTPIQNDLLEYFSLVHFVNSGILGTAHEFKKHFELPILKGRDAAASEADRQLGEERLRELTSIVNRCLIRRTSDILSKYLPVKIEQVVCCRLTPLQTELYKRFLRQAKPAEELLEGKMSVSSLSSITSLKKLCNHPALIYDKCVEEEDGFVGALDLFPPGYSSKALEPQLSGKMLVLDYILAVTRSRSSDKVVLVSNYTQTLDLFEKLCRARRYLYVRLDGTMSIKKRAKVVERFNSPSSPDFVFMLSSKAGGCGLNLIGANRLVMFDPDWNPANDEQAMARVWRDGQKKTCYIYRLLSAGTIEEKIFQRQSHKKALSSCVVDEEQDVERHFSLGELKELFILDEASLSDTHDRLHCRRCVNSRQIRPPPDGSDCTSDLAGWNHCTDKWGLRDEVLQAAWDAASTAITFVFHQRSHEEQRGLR

[13] = biological target: Voltage-dependent T-type calcium channel subunit alpha-1H (Homo sapiens, UniProt O95180); format: functional;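 further: channel activity triggered by adding a high calcium stimulation buffer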

Compound: Cc1cc(C(=O)COc2cccnc2[N+](=O)[O-])c(C)n1Cc1ccco1
- EC50 [1]: 13.1 µM (active)
- EC50 (HEK293 [2]): > 20 µM (inactive)
- IC50 (HEK293 [3]): 18.2 µM (active)
- IC50 (HEK293 [4]): > 20 µM (inactive)
- IC50 (HEK293 [5]): > 20 µM (inactive)
- IC50 (HEK293 [6]): > 20 µM (inactive)

Compound: CSC1=NSC2=NC(=O)/C(=C\c3cccs3)C(=N)N12
- CC50 [7]: > 40 µM (active)
- EC50 [8]: 8.94 µM (active)
- CC50 [9]: > 20 µM (active)
- IC50 (Leucine aminopeptidase): 32.2 µM (active)
- EC50 [10]: 418 nM (active)
- EC50 (H4): 75 µM (active)
- CC50 [11]: > 20 µM (active)

Compound: Cc1ccc(S(=O)(=O)Nc2cccnc2Oc2ccc(Cl)cc2)cc1
- IC50 (Prothrombin): > 50 µM (not active)
- IC50 (Coagulation factor XII): > 50 µM (inactive)

Compound: N=c1n(Cc2ccccc2)c2ccccc2n1CC(O)c1ccco1 (stereo not drawn)
- EC50 (Troponin, cardiac muscle): > 71.5 µM (inactive)

Compound: COc1ccc(-n2ncc3c(NCc4ccccn4)ncnc32)cc1
- IC50 (Coagulation factor XII): > 50 µM (inactive)

Compound: O=C(NCCCN1CCCC1)c1cc2c(Cl)nc3ccccc3c2s1
- IC50 (cells): 30.8 µM (active)
- CC50 [7]: 38.7 µM (active)
- CC50 [9]: > 20 µM (active)
- AC50 [12]: 7.11 µM (active)
- CC50 [11]: > 20 µM (active)

Compound: O=C(NC1CCCCC1)C(c1ccccc1)N(Cc1ccc2c(c1)OCO2)C(=O)c1cnsn1 (stereo not drawn)
- EC50 [13]: 4.5 µM (active)
